The target of experiment [1] is T1, Ras farnesyl transferase (Rattus norvegicus, UniProt Q02293+Q04631).
T1 construct: endogenous in cells; host or cells: Rat2 fibroblasts transformed with H-Ras or with an H-Ras/K-Ras C-terminus fusion
Kind of experiment: In vivo (cellular) inhibitory activity for Ras farnesyl transferase, Rat2 cell line transformed with fused protein of H-Ras substituted with polybasic lysine domain at C-terminus of K-Ras. Format: cell-based. The settings on record: Rat2 cell line transformed with H-Ras fused with polybasic lysine domain of K-Ras C-terminus; concentration inhibiting 50% of farnesyl bonding; read-out: K-Ras CIC50. As for the experimental part: (§1) In the present experiment, Rat2 cell line which expresses C-Harvey-Ras protein having transforming activity and Rat2 cell line (Korean patent application No. 97-14409) which is transformed with fused protein of H-Ras substituted with polybasic lysine domain at C-terminus of K-Ras were used. The experiment was performed by the modified Declue's method (Declue. J. E. et al., Cancer Research, 1991, 51, 712). Hereinafter, the experimental method will be described in more detail.
(§2) 3×10^5 cells of transformed Rat2 fibroblast cell line were sprayed on 60 mm cell cultivation dish and cultivated for 48 hours in a cell incubator at 37° C. and after 50% or more of density was reached, it was treated with the test compounds. The compound according to the present invention dissolved in dimethylsulfoxide (DMSO) was used. 1% concentration of dimethylsulfoxide was used in both control and test groups. After 4 hours from the treatment with the compound, methionine labeled with 150 μCi of radioactive isotope [^35S] per 1 ml of medium was added and after cultivating for 20 hours, the cells were, washed with physiological saline water. The cells were lysed using 1 ml of cold cell lysis buffer solution (50 mM of Sodium HEPES buffer solution containing 5mM of magnesium chloride, 1 mM of DTT, 1% NP 40, 1 mM of EDTA, 1 mM of PMSF, 2 μM of leupeptin, 2 μM of pepstatin A and 2 μM of antipain) and the supernatant wherein the cells were lysed was obtained by high-velocity centrifugation of 12,000 g×5 minutes. The amount of radioisotope in the supernatant was measured and standardized to obtain a quantitative result in immunoprecipitation reaction and then, Y13-259, a monoclonal antibody specifically binding to Ras protein (Furth, M. E. et al., J. Virol, 1982, 43, 294) was added and reacted for 15 hours at 4° C. Protein A(combined with goat anti-murine immunoglobulin antibody)-agarose suspension was added to the solution and reacted for 1 hour at 4° C. and then, to remove the unspecific binding product, immunoprecipitates were washed with a buffer solution (50 mM Tris chloride buffer solution containing 50 mM of sodium chloride, 0.5% of sodium dioxycolate, 0.5% of NP 40 and 0.1% of SDS). The precipitates were added to a buffer solution for electrophoresis and boiled and then, electrophoresis was performed using 13.5% of SDS polyacrylamide gel. After electrophoresis, the gel was fixed and dried. Then, the gel was exposed to X-ray film, developed printed. From the result of the experiment, intensities of band of in combined with or without farnesyl of Ras protein were measured, the concentration of the test compound inhibiting 50% of farnesyl bonding was defined as […], an in vivo Ras farnesyl transferase inhibitory activity.

Experiment [2] deals with T1, Ras farnesyl transferase. Description: In vivo (cellular) inhibitory activity for Ras farnesyl transferase, Rat2 cell line which expresses C-Harvey-Ras protein. The class given is cell-based. The settings on record: Rat2 cell line expressing C-Harvey-Ras; concentration inhibiting 50% of farnesyl bonding of Ras protein; read-out: H-Ras CIC50. As to the method: as §1, §2

The target in experiment [3] is T2, Ras farnesyl transferase (Homo sapiens, UniProt P49354+P49356).
T2 construct: made in house
Description: In vitro inhibitory activity for Ras farnesyl transferase, H-Ras substrate. Format: biochemical. The settings on record: recombinant farnesyl transferase 4.5 nM, Ras substrate protein 1.5 μM, tritium-farnesylpyrophosphate 0.15 μM, 30 minutes at 37° C.; read-out: H-Ras IC50. As for the experimental part:
In the present experiment, Ras farnesyl transferase produced by genetic recombination techniques according to the improved Pompliano's method (Pompliano et al., Biochemistry, 1992, 31, 3800) was used, and Ras substrate (Ras-CVLS) protein described in Korean Patent Appln. No. 97-14409 was used after it has been purified according to the known method (see, Chung et al., Biochimica et Biophysica Acta, 1992, 278, 1129).
The enzyme reaction was performed in 50 μl of 50 mM Sodium HEPES buffer solution containing 25 mM of potassium chloride, 25 mM of magnesium chloride, 10 mM of DTT and 50 μM of zinc chloride. 1.5 μM of Ras substrate protein, 0.15 μM of tritium-farnesylpyrophosphate and 4.5 nM of farnesyl transferase were used.
More specifically, in the initial step, farnesyl transferase was added to the above buffer solution, reaction was maintained for 30 minutes at 37° C. and then the reaction was stopped by adding 1 ml of ethanol solution containing 1M HCl. The formed precipitates were adsorbed to GF/B filter using Hopper harvestor(Hopper #FH 225V) for filter-binding, washed with ethanol, and then radioactivity of the dried filter was measured using LKB β counter. Enzyme titer was measured in the unsaturated state of substrate where the concentrations of Ras substrate protein and farnesyl transferase have quantitative relationship. The compound according to the present invention dissolved in dimethyl sulfoxide (DMSO) was added to the reaction solution in an amount of less than 5% of the total reaction solution, and then the enzyme inhibitory activity thereof was measured. The enzyme inhibitory activity was represented by percentage of the amount of farnesyl incorporated into the Ras substrate protein in the presence of the test compound to that in the absence of the test compound. IC50 of the test compound was defined as the concentration at which 50% of the enzyme activity was inhibited.

For experiment [4], the target named is T2, Ras farnesyl transferase. Kind of experiment: In vitro inhibitory activity for Ras farnesyl transferase, K-Ras substrate. The class given is biochemical. The settings on record: in vitro farnesyl transferase assay, K-Ras; read-out: K-Ras IC50.

pIC50: −log10 of the molar value. Where only a bound is given, the exact number is not on record here.

“1-(1-Decyl-1H-imidazol-5-yl)methyl-3-[N-(2-methoxyethyl)-N-methyl]carbamoyl-4-(naphthalen-1-yl-1H-pyrrole [Compound 119]”: the pIC50 on Ras farnesyl transferase [1] was over 4.52.
As to “3-[N-(2-Methoxyethyl)-N-methyl]carbamoyl-4-(naphthalen-1-yl)-1-(1-octyl-1H-imidazol-5-yl)methyl-1H-pyrrole [Compound 118]”, the pIC50 at Ras farnesyl transferase [1] is over 4.40.
Still for that read-out and setting: next, “3-[N-(2-Methoxyethyl)N-methyl]carbamoyl-4-(naphthalen-1-yl)-1-(1-pentyl-1H-imidazol-5-yl)methyl-1H-pyrrole [Compound 117]”: over 4.30.
In the case of `COCCN(C)C(=O)c1cn(Cc2cncn2Cc2ccc3c(c2)OCO3)cc1-c1cccc2ccccc12` [Compound 1, 3-[N-(2-Methoxyethyl)-N-methyl]carbamoyl-1-[1-(3,4-methylenedioxybenzyl)-1H-imidazol-5-ylmethyl]-4-(naphthalen-1-yl)-1H-pyrrole], the pIC50 was 7.60 on Ras farnesyl transferase [2], 8.96 at Ras farnesyl transferase [3] and 8.46 at Ras farnesyl transferase [4].
`N#Cc1ccc(Cn2cncc2Cn2cc(C(=O)c3ccccc3)c(-c3cccc4ccccc34)c2)cc1` [Compound 75]: the figures for the pIC50 at Ras farnesyl transferase [2], on Ras farnesyl transferase [3] and on Ras farnesyl transferase [4] were 6.70, 8.30 and 6.80, respectively.
In the same order, the values of `N#Cc1ccc(Cn2cncc2Cn2cc(C(=O)c3ccc(Br)cc3)c(-c3cccc4ccccc34)c2)cc1` [Compound 77] are 7.00, 8.40 and 6.92.
As to `CN1CCN(C(=O)c2cn(Cc3c[nH]cn3)cc2-c2cccc3ccccc23)CC1` [Compound 89], the figures for the pIC50 on Ras farnesyl transferase [3], on Ras farnesyl transferase [1] and at Ras farnesyl transferase [4] were 7.85, 4.00 to 5.00 and 5.00 to 7.00, respectively.
With `COCCN(C)C(=O)c1cn(Cc2cncn2Cc2ccc(C#N)cc2)cc1-c1cccc2ccccc12` [Compound 110, 1-[1-(4-Cyanobenzyl)-1H-imidazol-5-yl]methyl-3-[N-(2-methoxyethyl)-N-methyl]carbamoyl-4-(naphthalen-1-yl)-1H-pyrrole], the pIC50 at Ras farnesyl transferase [2] was 8.10; on Ras farnesyl transferase [3], 9.22; on Ras farnesyl transferase [4], 8.82.
In the same order, the values of `O=C(c1cn(Cc2cncn2Cc2ccc(Br)cc2)cc1-c1cccc2ccccc12)N1CCOCC1` [Compound 112, 1-[1-(4-Bromobenzyl)-1H-imidazol-5-yl]methyl-3-(morpholin-4yl)carbonyl-4-(naphthalen-1-yl)-1H-pyrrole] are 7.82, 8.40 and 8.22.
Consider `COCCN(C)C(=O)c1cn(Cc2cncn2CCC(C)C)cc1-c1cccc2ccccc12` [Compound 120], for which, on Ras farnesyl transferase [1], the pIC50 is over 4.70.
On the same count and under the same terms, the value for `COCCN(C)C(=O)c1cn(Cc2cncn2CCOC)cc1-c1cccc2ccccc12` [Compound 121, 1-[1-(2-Methoxyethyl)-1H-imidazol-5-yl]methyl-3-[N-(2-methoxyethyl)-N-methyl]carbamoyl-4-(naphthalen-1-yl)-1H-pyrrole] was over 4.40.
On the same count and under the same terms, the value for `COCCCn1cncc1Cn1cc(C(=O)N(C)CCOC)c(-c2cccc3ccccc23)c1` [Compound 122] was over 4.52; that for `CCOCCCn1cncc1Cn1cc(C(=O)N(C)CCOC)c(-c2cccc3ccccc23)c1` [Compound 123, 1-[1-(3-Ethoxypropyl)-1H-imidazol-5-yl]methyl-3-[N-(2-methoxyethyl)-N-methyl]carbamoyl-4-(naphthalen-1-yl)-1H-pyrrole] was over 4.40.
In the case of `COCCN(C)C(=O)c1cn(Cc2cncn2CCCOC(C)C)cc1-c1cccc2ccccc12` [Compound 124, 1-[1-(3-Isopropoxypropyl)-1H-imidazol-5-yl]methyl-3-[N-(2-methoxyethyl)-N-methyl]carbamoyl-4(naphthalen-1-yl)-1H-pyrrole], the pIC50 on Ras farnesyl transferase [1] is over 4.70.
On to `CCOC(=O)c1nc(Cc2cnc[nH]2)sc1-c1cccc2ccccc12` [Compound 144, 4-Ethoxycarbonyl-2-(1H-imidazol-5-ylmethyl)-5-(naphthalen-1-yl)thiazole], for which the pIC50 on Ras farnesyl transferase [3] was 6.42; on Ras farnesyl transferase [1], under 4.30.
On to `O=C(c1nc(Cc2cncn2Cc2ccc(Cl)cc2)sc1-c1cccc2ccccc12)N1CCOCC1` [Compound 146, 2-[1-(4-Chlorobenzyl)-1H-imidazol-5-ylmethyl]-4-(morpholin-4-yl)carbonyl-5-(naphthalen-1-yl)thiazole], for which the figures for the pIC50 at Ras farnesyl transferase [3] and at Ras farnesyl transferase [4] were 7.05 and 5.00, respectively.
Turning to `O=C(c1sc(Cc2cncn2Cc2ccc(Cl)cc2)nc1-c1cccc2ccccc12)N1CCOCC1` [Compound 149, 2-[1-(4-Chlorobenzyl)-1H-imidazol-5-ylmethyl]-5-(morpholin-4-yl)carbonyl-4-(naphthalen-1-yl)thiazole], the pIC50 at Ras farnesyl transferase [3] is 5.30; on Ras farnesyl transferase [1], under 4.30; on Ras farnesyl transferase [4], under 4.30.
For the molecule `COCCN(C)C(=O)c1sc(Cc2cncn2CC2CCN(C(=O)OCc3ccccc3)CC2)nc1-c1cccc2ccccc12` [Compound 151], the results for the pIC50 on Ras farnesyl transferase [3], at Ras farnesyl transferase [1] and on Ras farnesyl transferase [4] were 5.34, under 4.30 and under 4.30, respectively.
On to `O=C(OCc1ccccc1)N1CCC(Cn2cncc2Cn2cc(C(=O)N3CCOCC3)c(-c3cccc4ccccc34)n2)CC1` [Compound 158, 1-[1-(1-Benzyloxycarbonyl-piperidin-4-ylmethyl)-1H-imidazol-5-ylmethyl]-4-(morpholin-4-yl)carbonyl-3-(naphthalen-1-yl)-1H-pyrazole], for which the figures for the pIC50 at Ras farnesyl transferase [3], on Ras farnesyl transferase [1] and on Ras farnesyl transferase [4] were 6.60, 4.52 and 5.70, respectively.
In the case of `O=C(c1cn(Cc2cncn2Cc2ccc(Cl)cc2)nc1-c1cccc2ccccc12)N1CCOCC1` [Compound 161, 1-[1-(4-Chlorobenzyl)-1H-imidazol-5-ylmethyl]-4-(morpholin-4-yl)carbonyl-3-(naphthalen-1-yl)-1H-pyrazole], the values for the pIC50 at Ras farnesyl transferase [3] and on Ras farnesyl transferase [4] were 6.70 and 5.70, respectively.
With `N#Cc1ccc(Cn2cncc2Cn2cc(C(=O)N3CCOCC3)c(-c3cccc4ccccc34)n2)cc1` [Compound 162, 1-[1-(4-Cyanobenzyl)-1H-imidazol-5-ylmethyl]-4-(morpholin-4-yl)carbonyl-3-(naphthalen-1-yl)-1H-pyrazole], the pIC50 at Ras farnesyl transferase [3] was 6.60; at Ras farnesyl transferase [4], 5.70.
In the case of `Cn1cncc1Cn1cc(C(=O)N2CCOCC2)c(-c2cccc3ccccc23)n1` [Compound 163, 1-(1-Methyl-1H-imidazol-5-ylmethyl)-4-(morpholin-4-yl)carbonyl-3-(naphthalen-1-yl)-1H-pyrazole], the pIC50 at Ras farnesyl transferase [3] was 6.82; at Ras farnesyl transferase [1] it was under 4.30; at Ras farnesyl transferase [4] it was 5.00.

These data come from patent publication US6472526B1, “Imidazole derivatives having an inhibitory activity for farnesyl transferase and process for preparation thereof” (LG Chemical Ltd., priority 1997, dated 2002).
